# According to ChEMBL document CHEMBL1201862, “PubChem BioAssay data set” (2004):
# Calls of active or inactive are those of the source.
# Legend:
# [1] = target: Eukaryotic translation initiation factor 4E (Mus musculus, UniProt P63073); experiment: eIF4E–eIF4G protein interaction inhibitors, dose response, biochemical, TR-FRET (AID 855); assay type: functional;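 also: potency for disrupting eIF4E binding to eIF4GI seen as loss of FRET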
# [2] = target: Large T antigen (Simian virus 40, UniProt P03070); assay type: functional, Betapolyomavirus macacae;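 also: Confirmatory-stage PubChem screen for compounds that inhibit SV40 T antigen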
# [3] = target: T1, Short transient receptor potential channel 4 (Mus musculus, UniProt Q9QUQ5); experiment: mouse TRPC4 channel inhibitors, dose response, cell-based, HEK293 TRPC4/mu-opioid, Fluo-4 calcium (AID 434942); assay type: functional;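 also: potency of inhibitors blocking the TRPC4 calcium response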
# T1 sequence (Q9QUQ5 whole entry): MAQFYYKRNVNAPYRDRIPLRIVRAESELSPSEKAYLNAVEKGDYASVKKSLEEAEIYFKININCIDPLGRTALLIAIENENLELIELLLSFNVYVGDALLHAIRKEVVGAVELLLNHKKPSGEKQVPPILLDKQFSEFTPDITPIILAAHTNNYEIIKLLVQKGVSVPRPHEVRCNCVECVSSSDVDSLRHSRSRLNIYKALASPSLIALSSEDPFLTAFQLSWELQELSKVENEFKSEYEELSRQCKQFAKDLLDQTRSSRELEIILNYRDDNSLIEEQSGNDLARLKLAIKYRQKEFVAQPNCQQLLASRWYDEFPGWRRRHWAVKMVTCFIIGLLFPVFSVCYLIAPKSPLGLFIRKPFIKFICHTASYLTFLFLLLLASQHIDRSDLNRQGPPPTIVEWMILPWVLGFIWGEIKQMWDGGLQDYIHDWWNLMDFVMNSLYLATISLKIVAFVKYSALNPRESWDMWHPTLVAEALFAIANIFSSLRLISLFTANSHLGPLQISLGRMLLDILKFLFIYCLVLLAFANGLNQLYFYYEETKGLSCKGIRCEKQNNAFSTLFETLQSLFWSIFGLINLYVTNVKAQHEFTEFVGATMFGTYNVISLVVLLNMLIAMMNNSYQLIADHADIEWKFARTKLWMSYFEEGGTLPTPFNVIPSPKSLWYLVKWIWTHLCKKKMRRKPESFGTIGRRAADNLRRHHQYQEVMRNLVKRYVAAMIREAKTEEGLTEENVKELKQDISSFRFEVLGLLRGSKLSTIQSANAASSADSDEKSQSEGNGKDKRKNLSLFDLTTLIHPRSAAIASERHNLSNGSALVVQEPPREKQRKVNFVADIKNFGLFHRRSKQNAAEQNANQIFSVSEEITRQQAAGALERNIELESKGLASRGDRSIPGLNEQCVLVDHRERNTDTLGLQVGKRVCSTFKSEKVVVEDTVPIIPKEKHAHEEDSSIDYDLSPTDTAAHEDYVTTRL
# [4] = target: T2, Aminopeptidase N (Plasmodium falciparum FcB1/Columbia, UniProt O96935); experiment: P. falciparum M1AAP inhibitors, biochemical, fluorogenic H-Leu-NHMec substrate, 1536-well (AID 1445); design: species or system Plasmodium falciparum 3D7, 3D7
# T2 sequence (O96935 whole entry): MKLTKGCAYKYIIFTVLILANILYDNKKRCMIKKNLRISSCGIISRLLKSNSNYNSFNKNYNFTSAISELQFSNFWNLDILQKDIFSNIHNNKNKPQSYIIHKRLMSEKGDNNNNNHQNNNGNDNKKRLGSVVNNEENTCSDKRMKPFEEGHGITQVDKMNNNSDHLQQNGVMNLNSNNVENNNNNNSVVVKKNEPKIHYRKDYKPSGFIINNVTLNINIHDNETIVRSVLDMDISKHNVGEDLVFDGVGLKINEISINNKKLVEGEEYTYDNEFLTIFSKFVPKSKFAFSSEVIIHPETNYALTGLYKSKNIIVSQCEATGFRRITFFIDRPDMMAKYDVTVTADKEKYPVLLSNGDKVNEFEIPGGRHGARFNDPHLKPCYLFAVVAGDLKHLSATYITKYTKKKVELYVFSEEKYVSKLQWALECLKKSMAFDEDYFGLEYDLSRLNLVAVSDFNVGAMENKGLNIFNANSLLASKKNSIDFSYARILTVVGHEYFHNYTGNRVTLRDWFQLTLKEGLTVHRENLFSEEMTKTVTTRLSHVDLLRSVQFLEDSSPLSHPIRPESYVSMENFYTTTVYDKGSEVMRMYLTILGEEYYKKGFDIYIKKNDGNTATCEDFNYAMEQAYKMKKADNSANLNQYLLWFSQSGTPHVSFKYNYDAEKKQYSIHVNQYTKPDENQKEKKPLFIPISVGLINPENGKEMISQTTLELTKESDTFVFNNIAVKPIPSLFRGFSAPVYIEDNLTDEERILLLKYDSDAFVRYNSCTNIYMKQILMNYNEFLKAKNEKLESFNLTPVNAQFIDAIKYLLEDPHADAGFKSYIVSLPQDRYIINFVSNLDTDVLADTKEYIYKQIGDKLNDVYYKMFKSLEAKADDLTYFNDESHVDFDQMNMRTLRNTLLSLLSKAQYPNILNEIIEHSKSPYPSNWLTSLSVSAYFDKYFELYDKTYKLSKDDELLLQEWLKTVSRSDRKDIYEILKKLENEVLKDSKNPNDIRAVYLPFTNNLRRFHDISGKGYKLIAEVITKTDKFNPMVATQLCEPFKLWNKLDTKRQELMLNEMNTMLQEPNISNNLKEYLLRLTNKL
# [5] = target: T3, Protein RecA (Mycobacterium tuberculosis, UniProt P9WHJ3); experiment: Fluorescence Cell-Free Homogeneous Dose Retest to Identify Inhibitors of RecA-Intein Splicing Activity. [Related pubchem assays (depositor defined):AID2097, AID2223, AID489010, AID492950]; assay type: functional
# T3 sequence (P9WHJ3 whole entry): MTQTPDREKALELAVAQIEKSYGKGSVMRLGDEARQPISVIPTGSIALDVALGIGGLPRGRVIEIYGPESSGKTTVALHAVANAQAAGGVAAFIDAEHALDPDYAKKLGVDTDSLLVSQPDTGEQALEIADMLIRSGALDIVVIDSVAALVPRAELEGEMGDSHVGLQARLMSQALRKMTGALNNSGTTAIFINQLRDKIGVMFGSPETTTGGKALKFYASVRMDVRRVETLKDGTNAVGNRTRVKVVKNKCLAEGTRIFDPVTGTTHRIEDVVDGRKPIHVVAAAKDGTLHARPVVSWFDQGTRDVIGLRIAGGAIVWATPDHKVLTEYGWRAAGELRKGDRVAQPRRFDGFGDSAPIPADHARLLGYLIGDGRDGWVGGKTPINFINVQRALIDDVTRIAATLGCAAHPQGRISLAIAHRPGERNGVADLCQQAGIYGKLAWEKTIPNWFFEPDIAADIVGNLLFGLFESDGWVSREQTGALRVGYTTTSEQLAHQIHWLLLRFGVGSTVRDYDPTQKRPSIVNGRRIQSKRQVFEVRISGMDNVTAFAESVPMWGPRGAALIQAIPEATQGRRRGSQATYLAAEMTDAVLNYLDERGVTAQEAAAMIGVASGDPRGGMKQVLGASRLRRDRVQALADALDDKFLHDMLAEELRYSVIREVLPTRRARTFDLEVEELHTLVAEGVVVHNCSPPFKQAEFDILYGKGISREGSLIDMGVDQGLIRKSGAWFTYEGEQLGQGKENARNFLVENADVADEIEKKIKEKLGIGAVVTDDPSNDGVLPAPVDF
# [6] = target: T4, Leucine aminopeptidase (Plasmodium falciparum 3D7, UniProt Q8IL11); experiment: P. falciparum M17LAP inhibitors, primary screen, biochemical, fluorogenic H-Leu-NHMec substrate, 1536-well (AID 1619); assay type: functional
# T4 sequence (Q8IL11 whole entry): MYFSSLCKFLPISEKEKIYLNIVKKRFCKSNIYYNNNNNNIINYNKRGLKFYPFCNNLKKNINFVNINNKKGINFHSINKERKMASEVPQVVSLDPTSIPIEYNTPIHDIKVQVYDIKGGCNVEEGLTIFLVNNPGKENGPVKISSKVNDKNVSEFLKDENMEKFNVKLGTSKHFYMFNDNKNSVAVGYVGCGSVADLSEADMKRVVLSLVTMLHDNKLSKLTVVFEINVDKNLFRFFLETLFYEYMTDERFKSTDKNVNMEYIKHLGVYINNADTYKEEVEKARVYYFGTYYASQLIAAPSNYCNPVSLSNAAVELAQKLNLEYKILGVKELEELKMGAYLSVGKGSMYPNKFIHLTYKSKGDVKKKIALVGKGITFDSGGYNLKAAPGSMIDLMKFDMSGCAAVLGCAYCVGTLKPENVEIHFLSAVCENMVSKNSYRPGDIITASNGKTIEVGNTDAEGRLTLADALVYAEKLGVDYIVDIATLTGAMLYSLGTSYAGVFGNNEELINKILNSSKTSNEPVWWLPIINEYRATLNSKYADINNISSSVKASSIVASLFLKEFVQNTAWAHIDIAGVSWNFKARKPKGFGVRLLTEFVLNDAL
# [7] = target: T5, Replicative DNA helicase DnaB (Mycobacterium tuberculosis, UniProt P9WMR3); experiment: DnaB intein splicing inhibitors, dose response, biochemical, cell-free fluorescence (AID 449749); assay type: functional
# T5 sequence (P9WMR3 whole entry): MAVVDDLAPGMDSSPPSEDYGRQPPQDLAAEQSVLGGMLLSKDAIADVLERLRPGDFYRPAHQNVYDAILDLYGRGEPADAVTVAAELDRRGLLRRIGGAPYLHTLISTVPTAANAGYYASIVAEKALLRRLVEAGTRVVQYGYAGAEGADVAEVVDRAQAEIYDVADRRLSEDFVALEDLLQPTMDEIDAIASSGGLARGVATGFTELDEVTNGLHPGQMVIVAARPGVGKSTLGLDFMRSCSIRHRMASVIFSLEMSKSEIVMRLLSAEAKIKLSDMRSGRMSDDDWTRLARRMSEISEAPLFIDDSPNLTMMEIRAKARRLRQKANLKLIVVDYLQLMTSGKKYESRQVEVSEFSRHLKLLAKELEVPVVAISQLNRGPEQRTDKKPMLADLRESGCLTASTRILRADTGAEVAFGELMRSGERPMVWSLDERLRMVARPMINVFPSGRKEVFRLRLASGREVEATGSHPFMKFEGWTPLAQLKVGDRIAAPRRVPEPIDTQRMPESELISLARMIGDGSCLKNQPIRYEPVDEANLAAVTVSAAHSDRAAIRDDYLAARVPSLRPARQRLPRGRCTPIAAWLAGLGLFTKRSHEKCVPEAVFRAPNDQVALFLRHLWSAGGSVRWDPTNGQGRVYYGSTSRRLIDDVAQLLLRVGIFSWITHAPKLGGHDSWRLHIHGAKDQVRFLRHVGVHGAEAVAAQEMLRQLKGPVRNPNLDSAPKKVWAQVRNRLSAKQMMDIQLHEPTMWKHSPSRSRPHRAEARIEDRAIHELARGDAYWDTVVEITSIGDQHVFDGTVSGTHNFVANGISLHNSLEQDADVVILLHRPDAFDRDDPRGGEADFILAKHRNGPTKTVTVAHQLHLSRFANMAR
# [8] = target: T6, Ubiquitin-conjugating enzyme E2 N (Homo sapiens, UniProt P61088); assay type: functional;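 also: Dose-response confirmation in a TR-FRET assay detecting UBC13-driven polyubiquitin chain formation, inhibition measured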
# T6 sequence (P61088 whole entry): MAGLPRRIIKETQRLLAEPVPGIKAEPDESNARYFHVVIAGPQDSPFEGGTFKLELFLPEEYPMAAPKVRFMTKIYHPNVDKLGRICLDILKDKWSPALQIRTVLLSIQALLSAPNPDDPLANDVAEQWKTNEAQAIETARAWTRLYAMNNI
# [9] = target: DNA dC->dU-editing enzyme APOBEC-3G (Homo sapiens, UniProt Q9HC16); experiment: Dose Response confirmation of small molecule APOBEC3G DNA Deaminase Inhibitors via a fluorescence-based single-stranded DNA deaminase assay. [Related pubchem assays (depositor defined):AID493012, AID493028]; assay type: functional
# [10] = target: Nonstructural protein 1 (Influenza A virus, UniProt Q194T2); assay type: functional, Influenza A virus (A/California/07/2009(H1N1))
# [11] = cells; assay type: functional, cell-based
# [12] = cells; assay type: functional, cell-based; remark: listed apart in the source
# [13] = inhibitors of intracellular T. cruzi replication, confirmation, NIH3T3 host cells, beta-gal luminescence (AID 2044); assay type: functional, cell-based;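 also: intracellular parasites grown in NIH/3T3 mouse fibroblasts as host cells; luminescent beta-galactosidase reporter signal from transgenic T. cruzi replicating inside host cells; inhibitors lower the luminescence signal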
# [14] = cytotoxicity toward NIH3T3 fibroblasts, dose response, counter-screen, cell-based, ATP luminescence, mouse fibroblasts (AID 2010); assay type: functional;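 also: cells exposed to compound for about 90 hours before reading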
# Chain of Eukaryotic translation initiation factor 4E (P63073 whole entry): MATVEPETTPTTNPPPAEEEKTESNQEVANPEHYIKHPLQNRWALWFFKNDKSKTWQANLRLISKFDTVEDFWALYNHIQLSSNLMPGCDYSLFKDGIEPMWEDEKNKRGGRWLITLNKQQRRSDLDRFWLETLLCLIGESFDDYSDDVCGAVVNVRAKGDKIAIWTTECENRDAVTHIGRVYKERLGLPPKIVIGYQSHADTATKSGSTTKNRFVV
# Chain of DNA dC->dU-editing enzyme APOBEC-3G (Q9HC16 whole entry): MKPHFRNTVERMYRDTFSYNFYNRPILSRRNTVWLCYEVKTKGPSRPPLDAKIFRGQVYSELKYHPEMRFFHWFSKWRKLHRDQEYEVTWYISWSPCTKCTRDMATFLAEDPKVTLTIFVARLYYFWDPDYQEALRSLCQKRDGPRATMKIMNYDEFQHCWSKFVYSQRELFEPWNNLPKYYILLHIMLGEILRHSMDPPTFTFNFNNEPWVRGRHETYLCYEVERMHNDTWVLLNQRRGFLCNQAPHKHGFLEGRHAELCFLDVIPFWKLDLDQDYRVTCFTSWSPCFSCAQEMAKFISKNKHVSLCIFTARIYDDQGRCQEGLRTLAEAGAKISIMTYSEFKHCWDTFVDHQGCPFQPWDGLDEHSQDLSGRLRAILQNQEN
# Chain of Nonstructural protein 1 (Q194T2 whole entry): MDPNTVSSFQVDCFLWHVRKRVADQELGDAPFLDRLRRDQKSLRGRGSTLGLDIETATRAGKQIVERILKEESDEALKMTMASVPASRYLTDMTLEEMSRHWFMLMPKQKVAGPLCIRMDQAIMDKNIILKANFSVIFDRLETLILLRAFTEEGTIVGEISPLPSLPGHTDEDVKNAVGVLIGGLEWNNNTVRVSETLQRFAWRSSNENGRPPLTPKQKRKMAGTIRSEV
# Chain of Large T antigen (P03070 whole entry): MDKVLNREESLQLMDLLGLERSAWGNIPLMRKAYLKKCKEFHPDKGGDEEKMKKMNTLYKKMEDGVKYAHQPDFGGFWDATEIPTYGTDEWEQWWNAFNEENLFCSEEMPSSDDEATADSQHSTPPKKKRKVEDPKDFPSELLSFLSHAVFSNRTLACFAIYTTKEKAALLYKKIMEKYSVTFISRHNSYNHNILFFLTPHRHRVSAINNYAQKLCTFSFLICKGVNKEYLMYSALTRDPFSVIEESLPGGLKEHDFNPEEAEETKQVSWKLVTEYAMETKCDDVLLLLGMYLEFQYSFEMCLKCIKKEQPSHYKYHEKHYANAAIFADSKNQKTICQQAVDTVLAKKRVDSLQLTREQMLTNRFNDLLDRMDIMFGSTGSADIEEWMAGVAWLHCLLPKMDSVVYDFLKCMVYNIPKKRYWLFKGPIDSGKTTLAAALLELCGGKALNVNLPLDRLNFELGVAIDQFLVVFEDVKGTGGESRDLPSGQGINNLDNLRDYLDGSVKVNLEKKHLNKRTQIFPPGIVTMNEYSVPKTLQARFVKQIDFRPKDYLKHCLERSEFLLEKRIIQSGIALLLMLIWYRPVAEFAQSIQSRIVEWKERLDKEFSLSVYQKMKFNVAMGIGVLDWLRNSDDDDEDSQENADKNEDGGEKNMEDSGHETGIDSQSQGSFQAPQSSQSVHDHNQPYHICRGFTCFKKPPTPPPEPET
structure (smiles),measurement,setting,value
Oc1ccc(-c2[nH]ncc2-c2cccc3cccnc23)c(O)c1,IC50,[1],> 64 µM (inactive)
same,IC50,[2],25.7 µM (active)
Fc1ccc(C2CCCN2Cc2nc(Cc3ccccc3)no2)cc1 (stereo unspecified),IC50,[1],50 µM (inactive)
O=C(Nc1ccccc1Oc1cccnc1)C1CCCN(Cc2ccc(F)cc2)C1 (stereo unspecified),EC50,[3],3.35 µM (active)
O=C(NN1C(=O)c2ccccc2NC12CCCCC2)c1ccccc1,IC50,[4],6.87 µM (active)
CCOc1cc(C2C(C#N)=C(N)Oc3[nH]nc(-c4ccccc4)c32)ccc1O (stereo unspecified),EC50,[5],0.689 µM (active)
same,IC50,[6],77.1 µM (active)
same,AC50,[7],1.81 µM (active)
same,IC50,[8],> 20 µM (inactive)
CCOc1ccc(Nc2nc3cc(S(=O)(=O)N(CC)CC)ccc3o2)cc1,IC50,[9],> 100 µM (inactive)
COc1cc2cc(C(c3nnnn3C3CCCC3)N(C)C3CCCCC3)c(O)nc2cc1OC (stereo unspecified),IC50,[1],> 64 µM (inactive)
O=C(Cc1ccccc1[N+](=O)[O-])OCc1cccc([N+](=O)[O-])c1,EC50,[3],0.376 µM (active)
Cc1nnc2sc(SCC(=O)Nc3ccc(Cl)cc3)nn2c1=O,IC50,[10],9.75 µM (active)
COc1ccc(CC(=O)Nc2nnc(C(C)C)s2)cc1,IC50,[1],50 µM (inactive)
Cc1ccc(/C(=N/Nc2ncnc3ccccc23)C(=O)O)cc1,EC50,[11],> 350 µM (not active)
same,EC50,[12],> 350 µM (not active)
same,IC50,[10],9.46 µM (active)
Cc1cc(C)n(CC(=O)N/N=C/c2cc(Br)cc([N+](=O)[O-])c2O)n1,EC50,[13],0.678 µM (active)
same,EC50,[14],15.9 µM (active)
same,IC50,[4],19.2 µM (active)
CSc1n/c(=N/C(C)=O)ss1,IC50,[9],25.8 µM (active)
